Data: patent US12414972B2 (University of South Florida, priority 2021, dated 2025)

How the values were obtained:
mice gut = assay: Oral administration of ethanolamine in mice; assay type: in vivo
From the text: (§1) RNA isolation and gene expression analyses.
(§2) miRNA profiling and expression analyses.

enteroids = assay: Ethanolamine treatment of enteroids, expression analyses; assay type: cell-based, mouse
Method: Enteroids development and treatments. To develop mouse enteroids, entire small intestine was collected from mice and flushed with pre-cooled Dulbecco's phosphate buffered saline (DPBS). The lengthwise cut-opened ileum was washed with cooled PBS and fragmented into 2 mm small pieces, then transferred to a 50-ml conical flask containing cleaned pre-cooled PBS. Tissue fragments were incubated in the 25 ml of pre-warmed Trypsin (Gibco) on a rocking platform for 15 minutes. After removing the trypsin, tissue pieces were washed with 10 ml pre-cold PBS with 0.1% bovine serum albumin and filtered in a 50 ml conical tube through a 70 μm cell strainer (Falcon). These pieces were then centrifuged at 290×g for 5 min at 4° C., and the intestinal crypt-containing pallets were suspended in the 10 mL cold DMEM: F-12 (Gibco) and centrifuged at 500×g for 10 minutes followed by resuspending in 150 μL IntestiCult Organoid Growth Medium (StemCell) with […] gentamicin (Gibco). The Matrigel Matrix (Corning) was added to the suspension and the mixture of 50 μL was used to form a dome at the center of a prewarmed 24-well culture plate and incubated at 37° C. and 5% CO2 for 30 minutes to allow the Matrigel to set. To maintain the cultures, the IntestiCult Organoid Growth Medium was changed three times/week, and images were captured by from day 1 to 12. […] The organoids were harvested after 2 days of treatment(s) for miRNA, mRNA, and protein analyses. Experiments were repeated three times.
as §1, §2

Caco2 cells = assay: Ethanolamine treatment of Caco2 cells, expression analyses; assay type: cell-based, Human
From the text: as §1, §2

Caco-2 cell monolayers = assay: Transepithelial electric resistance (TEER) assay in Caco-2 cell monolayers; assay type: cell-based, Human; conditions: ethanolamine treatment, up to 8 hrs
Method: Transepithelial electric resistance (TEER) assay in Caco-2 cell monolayers. Human intestinal epithelial Caco-2 cells (American Type Culture Collection) were seeded on apical chamber made of polyester membrane filters with 0.4 μm pore size of 12-well transwell plates (Costar) at a density of 3×10^5/well. The culture medium from both apical and basolateral compartment were changed every two days. The cells were allowed to fully differentiate for 21 days; and fully differentiated cells were challenged with FCM and metabolites for next 8 hours with continuous measuring of TEER values, using an EVOM2 Epithelial Voltometer (WPI) according to the manufacturer's instruction. The blank inert resistance value (the insert with only culture media) was subtracted from the measured resistance value of each sample and final resistance in ohm×cm2 was calculated by multiplying the sample resistance by the area of the membrane.

miR101a-3p promoter = assay: Promoter luciferase assay in Caco-2 cells; assay type: cell-based, Human
Method: Promoter luciferase assay. Caco-2 cells were seeded onto a 96-well plate at a density of 2×10^4 cells/well and transfected with miR101a-3p promoter pMK-RQ (KanR) reporter vector of 4 different nucleotide sequence (−1 to −500, −1 to −1000, −1 to −1500 and −1 to −2000) from its TSS (Transcription start site) and pMK-RQ (control vector using Lipofectamine 3000 transfection kit (Invitrogen). The TSS of miR101a-3p is located at position: chr1 65067704 (genome version hg38) as reported earlier. (Huang et al., 2017). The cells were collected at various time point (0, 1, 3, 5, 7 and 10 hrs) after transfection. The expression level of the firefly luciferase reporter gene was measured using Pierce Firefly Luciferase Glow Assay Kit.

[1] = oral, 100 mg/kg body weight, one dose, vs non-treated controls
[2] = among top 6 selected metabolites

NCCO [ethanolamine]
no change: miR101a-3p promoter activity (miR101a-3p promoter; vector carrying −1 to 500 bp fragment)
significantly reduced: expression of (Tjp1) mRNA in the colon (mice gut; [1]) | expression of (Tjp1) mRNA in the ileum (mice gut; [1]) | expression of (Tjp1) protein in the ileum (mice gut; [1]) | expression of inflammatory markers like IL-1, IL-6, and TNF-α (Caco2 cells; FIG. 12C, Caco2 culture experiments)
reduced: TEER in the monolayers of Caco2 cells (Caco-2 cell monolayers)
most dramatically reduced: expression of Tjp1 mRNA in the enteroids (enteroids; [2]) | expression of Tjp1 mRNA in the Caco2 cells (Caco2 cells; [2])
significantly increased: expression of miR101a-3p in the colon of mice (mice gut; ethanolamine treatment) | expression of miR101a-3p in the ileum of mice (mice gut; ethanolamine treatment) | expression of inflammatory markers (IL-1 β, IL-6 and TNF α) in the intestine (ileum) (mice gut; ethanolamine treatment in mice vs controls) | expression (Arid3a) in mouse intestine (mice gut; ethanolamine treatment vs controls, FIG. 5N) | leaky gut (FITC-dextran assay) (mice gut; oral, 100 mg/kg body weight, one dose, mice) | expression of Arid3a in the enteroids (enteroids; ethanolamine treatment) | expression of miR101a-3p in enteroids (enteroids; ethanolamine treatment) | expression of miR101a-3p in Caco2 cells (Caco2 cells; ethanolamine treatment) | expression (Arid3a) in Caco2 cells (Caco2 cells; ethanolamine treatment vs controls, FIG. 5M) | miR101a-3p promoter activity (miR101a-3p promoter; vector carrying −1 to 1500 bp fragment) | miR101a-3p promoter activity (miR101a-3p promoter; vector carrying −1 to −1000 bp fragment)
increased: miR101a-3p promoter luciferase activity (miR101a-3p promoter; vector with −1 to −2000 bp of TSS vs empty vector)
